{"source": "patent US20200347043A1", "about": "“MODULATORS OF THE INTEGRATED STRESS PATHWAY” (Calico Life Sciences LLC, priority 2019, published 2020)"}
{"test_system": "HEK293T cells carrying the ATF4 luciferase reporter", "assay": "ATF4-Luc assay (in vitro model of VWMD)", "assay_type": "cell-based, human", "conditions": "Homo sapiens, HEK-293T, 1 μg/mL tunicamycin, 7 hours, One Glo luminescence", "in_short": "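Stable HEK293T line expressing firefly luciferase behind the human ATF4 5′-UTR, treated with 1 μg/mL tunicamycin plus compound for 7 hours. Luminescence read with One Glo; EC50 determined.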", "units": {"EC50": "nM"}}
{"smiles": "O=C1C[C@H](C(=O)N[C@H]2CC[C@H](N3CCN(C4CC(OC(F)(F)F)C4)C3=O)CC2)Oc2ccc(Cl)cc21", "note": "(stereo partly drawn) [Compound 188, (2R)-6-chloro-4-oxo-N-[(1r,4R)-4-{2-oxo-3-[3-(trifluoromethoxy)cyclobutyl]imidazolidin-1-yl}cyclohexyl]-3,4-dihydro-2H-1-benzopyran-2-carboxamide]", "EC50": "> 2000"}
{"smiles": "O=C(CO[C@H]1C[C@@H](OC(F)(F)F)C1)NC12CCC(NC(=O)[C@H]3CC(=O)c4cc(F)c(F)cc4O3)(CC1)CC2", "note": "[Compound 189, (2R)-6,7-difluoro-4-oxo-N-[4-(2-{[cis-3-(trifluoromethoxy)cyclobutyl]oxy}acetamido)bicyclo[2.2.2]octan-1-yl]-3,4-dihydro-2H-1-benzopyran-2-carboxamide]", "EC50": "10 to 50"}
{"smiles": "O=C(NC12CCC(c3nnc([C@H]4C[C@@H](OC(F)(F)F)C4)o3)(CC1)OC2)[C@@H]1C[C@H](O)c2cc(Cl)ccc2O1", "note": "[Compound 190, (2S,4S)-6-chloro-4-hydroxy-N-(1-{5-[cis-3-(trifluoromethoxy)cyclobutyl]-1,3,4-oxadiazol-2-yl}-2-oxabicyclo[2.2.2]octan-4-yl)-3,4-dihydro-2H-1-benzopyran-2-carboxamide]", "EC50": "50 to 250"}
{"smiles": "O=C(NC12CCC(c3nnc([C@H]4C[C@@H](OC(F)(F)F)C4)o3)(CC1)OC2)[C@H]1C[C@@H](O)c2cc(Cl)ccc2O1", "note": "[Compound 191, (2R,4R)-6-chloro-4-hydroxy-N-(1-{5-[cis-3-(trifluoromethoxy)cyclobutyl]-1,3,4-oxadiazol-2-yl}-2-oxabicyclo[2.2.2]octan-4-yl)-3,4-dihydro-2H-1-benzopyran-2-carboxamide]", "EC50": "< 10"}
{"smiles": "O=C(CO[C@H]1C[C@@H](OC(F)(F)F)C1)NC12CCC(NC(=O)[C@H]3CC(=O)c4cc(Cl)ccc4O3)(CC1)CC2", "note": "[Compound 192, (2R)-6-chloro-4-oxo-N-[4-(2-{[cis-3-(trifluoromethoxy)cyclobutyl]oxy}acetamido)bicyclo[2.2.2]octan-1-yl]-3,4-dihydro-2H-1-benzopyran-2-carboxamide]", "EC50": "10 to 50"}
{"smiles": "O=C(NC12CCC(C(=O)NCc3ccc(C(F)(F)F)cn3)(CC1)CC2)[C@@H]1C[C@@H](O)c2cc(Cl)ccc2O1", "note": "[Compound 193, (2S,4R)-6-chloro-4-hydroxy-N-[4-({[5-(trifluoromethyl)pyridin-2-yl]methyl}carbamoyl)bicyclo[2.2.2]octan-1-yl]-3,4-dihydro-2H-1-benzopyran-2-carboxamide]", "EC50": "50 to 250"}
{"smiles": "O=C(CO[C@H]1C[C@@H](OC(F)(F)F)C1)NC12CCC(NC(=O)[C@H]3C[C@@H](O)c4cc(F)c(F)cc4O3)(CC1)CC2", "note": "[Compound 194, (2R,4R)-6,7-difluoro-4-hydroxy-N-[4-(2-{[cis-3-(trifluoromethoxy)cyclobutyl]oxy}acetamido)bicyclo[2.2.2]octan-1-yl]-3,4-dihydro-2H-1-benzopyran-2-carboxamide]", "EC50": "< 10"}
{"smiles": "O=C(CO[C@H]1C[C@@H](OC(F)(F)F)C1)NC12CCC(NC(=O)[C@H]3C[C@@H](O)c4cc(Cl)ccc4O3)(CC1)CC2", "note": "[Compound 195, (2R,4R)-6-chloro-4-hydroxy-N-[4-(2-{[cis-3-(trifluoromethoxy)cyclobutyl]oxy}acetamido)bicyclo[2.2.2]octan-1-yl]-3,4-dihydro-2H-1-benzopyran-2-carboxamide]", "EC50": "< 10"}
{"smiles": "O=C(CO[C@H]1C[C@@H](OC(F)(F)F)C1)NC12CCC(NC(=O)[C@H]3C[C@@H](O)c4cc(Cl)ccc4O3)(C1)C2", "note": "[Compound 196, (2R,4R)-6-chloro-4-hydroxy-N-[4-(2-{[cis-3-(trifluoromethoxy)cyclobutyl]oxy}acetamido)bicyclo[2.1.1]hexan-1-yl]-3,4-dihydro-2H-1-benzopyran-2-carboxamide]", "EC50": "10 to 50"}
{"smiles": "O=C(N[C@H]1CC[C@H](N2CCN(C3CC(OC(F)(F)F)C3)C2=O)CC1)[C@H]1C[C@@H](O)c2cc(Cl)ccc2O1", "note": "(stereo partly shown) [Compound 197]", "EC50": "> 2000"}
{"smiles": "O=C(N[C@H]1CC[C@H](C(=O)NCc2ccc(C(F)(F)F)cn2)CC1)[C@H]1C[C@H](O)c2cc(Cl)ccc2O1", "note": "[Compound 198, (2R,4S)-6-chloro-4-hydroxy-N-[trans-4-({[5-(trifluoromethyl)pyridin-2-yl]methyl}carbamoyl)cyclohexyl]-3,4-dihydro-2H-1-benzopyran-2-carboxamide]", "EC50": "250 to 500"}
{"smiles": "O=C(NC12CC(n3cnc(-c4ccc(C(F)(F)F)nc4)c3)(C1)C2)[C@H]1C[C@@H](O)c2cc(Cl)ccc2O1", "note": "[Compound 201, (2R,4R)-6-chloro-4-hydroxy-N-(3-{4-[6-(trifluoromethyl)pyridin-3-yl]-1H-imidazol-1-yl}bicyclo[1.1.1]pentan-1-yl)-3,4-dihydro-2H-1-benzopyran-2-carboxamide]", "EC50": "< 10"}
{"smiles": "O=C(NC12CCC(c3nnc([C@H]4C[C@@H](OC(F)(F)F)C4)o3)(CC1)CC2)[C@H]1C[C@@H](O)c2cc(Cl)ccc2O1", "note": "[Compound 203, (2R,4R)-6-chloro-4-hydroxy-N-(4-{5-[cis-3-(trifluoromethoxy)cyclobutyl]-1,3,4-oxadiazol-2-yl}bicyclo[2.2.2]octan-1-yl)-3,4-dihydro-2H-1-benzopyran-2-carboxamide]", "EC50": "< 10"}
{"smiles": "O=C(NC12CCC(c3nnc([C@H]4C[C@@H](OC(F)(F)F)C4)o3)(CC1)CC2)[C@@H]1C[C@H](O)c2cc(Cl)ccc2O1", "note": "[Compound 204, (2S,4S)-6-chloro-4-hydroxy-N-(4-{5-[cis-3-(trifluoromethoxy)cyclobutyl]-1,3,4-oxadiazol-2-yl}bicyclo[2.2.2]octan-1-yl)-3,4-dihydro-2H-1-benzopyran-2-carboxamide]", "EC50": "10 to 50"}
{"smiles": "O=C(NC12CCC(C(=O)N[C@H]3C[C@@H](OC(F)(F)F)C3)(CC1)OC2)[C@H]1C[C@@H](O)c2cc(Cl)ccc2O1", "note": "[Compound 205, (2R,4R)-6-chloro-4-hydroxy-N-(1-{[cis-3-(trifluoromethoxy)cyclobutyl]carbamoyl}-2-oxabicyclo[2.2.2]octan-4-yl)-3,4-dihydro-2H-1-benzopyran-2-carboxamide]", "EC50": "50 to 250"}
{"smiles": "O=C(NC12CCC(C(=O)N[C@H]3C[C@@H](OC(F)(F)F)C3)(CC1)OC2)[C@@H]1C[C@H](O)c2cc(Cl)ccc2O1", "note": "[Compound 206, (2S,4S)-6-chloro-4-hydroxy-N-(1-{[cis-3-(trifluoromethoxy)cyclobutyl]carbamoyl}-2-oxabicyclo[2.2.2]octan-4-yl)-3,4-dihydro-2H-1-benzopyran-2-carboxamide]", "EC50": "500 to 2000"}
{"smiles": "O=C(N[C@H]1CC[C@H](N2CCN(c3ccc(Cl)c(F)c3)C2=O)CC1)[C@H]1C[C@@H](O)c2cc(Cl)ccc2O1", "note": "[Compound 207, (2R,4R)-6-chloro-N-{trans-4-[3-(4-chloro-3-fluorophenyl)-2-oxoimidazolidin-1-yl]cyclohexyl}-4-hydroxy-3,4-dihydro-2H-1-benzopyran-2-carboxamide]", "EC50": "< 10"}
{"smiles": "O=C(CO[C@H]1C[C@@H](OC(F)(F)F)C1)NC12CC(NC(=O)[C@@H]3C[C@@H](O)c4cc(Cl)ccc4O3)(C1)C2", "note": "[Compound 208, (2S,4R)-6-chloro-4-hydroxy-N-[3-(2-{[cis-3-(trifluoromethoxy)cyclobutyl]oxy}acetamido)bicyclo[1.1.1]pentan-1-yl]-3,4-dihydro-2H-1-benzopyran-2-carboxamide]", "EC50": "< 10"}
{"smiles": "O=C(NC12CC(n3cc(-c4ccc(Cl)cc4)cn3)(C1)C2)[C@H]1C[C@@H](O)c2cc(Cl)ccc2O1", "note": "[Compound 212, (2R,4R)-6-chloro-N-{3-[4-(4-chlorophenyl)-1H-pyrazol-1-yl]bicyclo[1.1.1]pentan-1-yl}-4-hydroxy-3,4-dihydro-2H-1-benzopyran-2-carboxamide]", "EC50": "< 10"}
{"smiles": "O=C(CO[C@H]1C[C@@H](OC(F)(F)F)C1)N[C@H]1CC[C@H](NC(=O)[C@H]2CC(=O)c3cc(Cl)ccc3O2)CC1", "note": "[Compound 213, (2R)-6-chloro-4-oxo-N-[trans-4-(2-{[cis-3-(trifluoromethoxy)cyclobutyl]oxy}acetamido)cyclohexyl]-3,4-dihydro-2H-1-benzopyran-2-carboxamide]", "EC50": "50 to 250"}
{"smiles": "O=C(CO[C@H]1C[C@@H](OC(F)(F)F)C1)N[C@H]1CC[C@H](NC(=O)[C@H]2C[C@@H](O)c3cc(Cl)ccc3O2)CC1", "note": "[Compound 214, (2R,4R)-6-chloro-4-hydroxy-N-[trans-4-(2-{[cis-3-(trifluoromethoxy)cyclobutyl]oxy}acetamido)cyclohexyl]-3,4-dihydro-2H-1-benzopyran-2-carboxamide]", "EC50": "10 to 50"}
{"smiles": "O=C(N[C@H]1CC[C@H](C(=O)N[C@H]2C[C@@H](OC(F)(F)F)C2)CC1)[C@H]1C[C@@H](O)c2cc(Cl)ccc2O1", "note": "[Compound 215, (2R,4R)-6-chloro-4-hydroxy-N-[trans-4-{[cis-3-(trifluoromethoxy)cyclobutyl]carbamoyl}cyclohexyl]-3,4-dihydro-2H-1-benzopyran-2-carboxamide]", "EC50": "< 10"}
{"smiles": "O=C1C[C@H](C(=O)NC23CC(C(=O)N[C@H]4C[C@@H](OC(F)(F)F)C4)(C2)C3)Oc2ccc(Cl)cc21", "note": "[Compound 216, (2R)-6-chloro-4-oxo-N-(3-{[cis-3-(trifluoromethoxy)cyclobutyl]carbamoyl}bicyclo[1.1.1]pentan-1-yl)-3,4-dihydro-2H-1-benzopyran-2-carboxamide]", "EC50": "> 2000"}
{"smiles": "O=C(NC12CC(c3nc([C@H]4C[C@@H](OC(F)(F)F)C4)no3)(C1)C2)[C@@H]1C[C@@H](O)c2cc(Cl)ccc2O1", "note": "[Compound 217, (2S,4R)-6-chloro-4-hydroxy-N-(3-{3-[cis-3-(trifluoromethoxy)cyclobutyl]-1,2,4-oxadiazol-5-yl}bicyclo[1.1.1]pentan-1-yl)-3,4-dihydro-2H-1-benzopyran-2-carboxamide]", "EC50": "50 to 250"}
{"smiles": "O=C(NC12CC(c3nc([C@H]4C[C@@H](OC(F)(F)F)C4)no3)(C1)C2)[C@@H]1C[C@H](O)c2cc(Cl)ccc2O1", "note": "[Compound 218, (2S,4S)-6-chloro-4-hydroxy-N-(3-{3-[cis-3-(trifluoromethoxy)cyclobutyl]-1,2,4-oxadiazol-5-yl}bicyclo[1.1.1]pentan-1-yl)-3,4-dihydro-2H-1-benzopyran-2-carboxamide]", "EC50": "500 to 2000"}
